From US20220096468A1 (priority 2018, published 2022)
Several values for one entry are separate records, joined by “and”; a condition that tells them apart may be missing. Equal entries are not always repeated. Where two headings read alike, the source gives them in different places. Marks after values point to notes of the source that are not given here.

How the values were obtained:
[1] = target: RdRp of the influenza virus (replicon activity) (Influenza A virus, UniProt P03431); test: Influenza virus RdRp replicon reporter (Luc) assay in transduced 293T cells; format: cell-based, Influenza A/PR/8/34 (H1N1); settings: for inhibition at 10 µM: read-out: Replicon inhibiting percentage; for IC50: read-out: T-705 50% inhibitory concentration
[2] = test system: influenza virus (PR/8(H1N1)); test: microbe, parasite or virus in culture; format: cell-based; settings: for IC50: unidentified influenza virus, MDCK, MDCK cells
293T cells = test: Amount of intracellular T-705RTP in 293T cells by LC/MS/MS; format: cell-based, human; settings: 293T cells cultured 24 hours with T-705 and 6-mercaptopurine; FIG. 1
Description: As described above, the pyrazine derivative or a salt thereof undergoes ribosyl phosphorylation in a cell. […] In order to examine whether or not the effect of 6-mercaptopurine to reinforce the activity of T-705, which was shown in Test Example 1, is caused by a change in the amount of T-705RTP, the amount of T-705RTP in 293T cells was measured under the treatment with 6-mercaptopurine.
293T cells (5×10^5 cells) seeded in each well of a 6-well plate were cultured with a vehicle (0.3% DMSO) or with 6-mercaptopurine, T-705, or the two drugs in various concentrations, under conditions of 5% CO2 at 37° C. for 24 hours.
After completion of the culture, the reaction mixture was washed with 2 ml of PBS, and 300 μl of trypsin was then added thereto. The obtained mixture was left at rest at 37° C. for 5 minutes, and the cells were then removed. Subsequently, 400 μl of a trypsin inhibitor was added and suspended into the cells, and the cell suspension was then recovered in a 1.5-ml tube. The cell suspension was centrifuged at 1,000 rpm at 4° C. for 2 minutes (MX-301, TOMY), and 500 μl of a supernatant was then removed. […]
The measurement of the number of cells and an LC/MS/MS analysis were carried out, and the amount of T-705RTP in each sample was then measured. […]

[3] = test system: influenza virus (PR/8(H1N1)); format: cell-based
Punta Toro virus = format: cell-based
[4] = HEK-293T, T-705 10 μM, antimetabolite 0.08 μM
[5] = HEK-293T, T-705 10 μM, antimetabolite 0.4 μM
[6] = HEK-293T, T-705 10 μM, antimetabolite 2.0 μM
[7] = HEK-293T, T-705 10 μM, antimetabolite 10.0 μM
[8] = T-705 0 μM, antimetabolite 0.08 μM
[9] = T-705 0 μM, antimetabolite 0.4 μM
[10] = T-705 0 μM, antimetabolite 2.0 μM
[11] = T-705 0 μM, antimetabolite 10.0 μM
[12] = HEK-293T, single agent, without T-705, read-out: replicon inhibiting percentage

Sc1ncnc2nc[nH]c12 [6-Mercaptopurine, 6-mercaptopurine] showed an inhibition at 10 µM [1, 4] of 1.8%, an inhibition at 10 µM [1, 5] of 3.7% and an inhibition at 10 µM [1, 6] of 17%. It also gave an inhibition at 10 µM [1, 7] of 38%, an inhibition at 200 µM ([1]; HEK-293T, single agent, <200 μM, without T-705, read-out: replicon inhibiting percentage) of less than 50% and a Replicon inhibiting percentage [1, 8] of −1.1%. It also gave a Replicon inhibiting percentage [1, 9] of 1.5%, a Replicon inhibiting percentage [1, 10] of 2.7% and a Replicon inhibiting percentage [1, 11] of 8.2%. For the same compound, the CPE inhibitory effects ([2]; single agent, 10 μM) was “did not exhibit CPE inhibitory effects” and the “amount of T-705RTP in the cells after the treatment of T-705” value (293T cells) was “increased”.

Compound Cn1cnc([N+](=O)[O-])c1Sc1ncnc2nc[nH]c12 [Azathioprine, azathioprine] has an inhibition at 10 µM [1, 4] of 3.3%, an inhibition at 10 µM [1, 5] of 1.3% and an inhibition at 10 µM [1, 6] of 5.9%. For the same compound, the inhibition at 10 µM [1, 7] was 26%, the Replicon inhibiting percentage [1, 8] was 3.1% and the Replicon inhibiting percentage [1, 9] was −6.1%. It also gave a Replicon inhibiting percentage [1, 10] of 3.4% and a Replicon inhibiting percentage [1, 11] of 5.8%.

For CN(Cc1cnc2nc(N)nc(N)c2n1)c1ccc(C(=O)N[C@@H](CCC(=O)O)C(=O)O)cc1 [Methotrexate, methotrexate], the inhibition at 10 µM [1, 4] was 11%, the inhibition at 10 µM [1, 5] was 36% and the inhibition at 10 µM [1, 6] was 34%. It also gave an inhibition at 10 µM [1, 7] of 37%, an inhibition at 20 µM [1, 12] of less than 50% and a Replicon inhibiting percentage [1, 8] of 1.3%. For the same compound, the Replicon inhibiting percentage [1, 9] was 18%, the Replicon inhibiting percentage [1, 10] was 20% and the Replicon inhibiting percentage [1, 11] was 19%.

Compound C#CCC(Cc1cnc2nc(N)nc(N)c2n1)c1ccc(C(=O)N[C@@H](CCC(=O)O)C(=O)O)cc1 (some centres unmarked) [Pralatrexate, pralatrexate] has an inhibition at 10 µM [1, 4] of 33%, an inhibition at 10 µM [1, 5] of 33% and an inhibition at 10 µM [1, 6] of 33%. The inhibition at 10 µM [1, 7] was 35%, the inhibition at 20 µM [1, 12] was less than 50% and the Replicon inhibiting percentage [1, 8] was 24%. For the same compound, the Replicon inhibiting percentage [1, 9] was 23%, the Replicon inhibiting percentage [1, 10] was 2% and the Replicon inhibiting percentage [1, 11] was 23%.

NC(=O)c1ncn([C@@H]2O[C@H](CO)[C@@H](O)[C@H]2O)n1 [Ribavirin] was tested, and the “minimum drug concentration which exhibits complete CPE suppression effect” value ([3]; used alone) was 30 µM.

NC(=O)c1nc(F)cnc1O [T-705, 6-Fluoro-3-hydroxy-2-pyrazinecarboxamide] gave an IC50 ([1]; 6-Mercaptopurine concentration 0 μM) of 310 µM, an IC50 ([1]; 6-Mercaptopurine concentration 0.03 μM) of 303 µM and an IC50 ([1]; 6-Mercaptopurine concentration 0.09 μM) of 275 µM. The IC50 ([1]; 6-Mercaptopurine concentration 0.27 μM) was 219 µM, the IC50 ([1]; 6-Mercaptopurine concentration 0.82 μM) was 163 µM and the IC50 ([1]; 6-Mercaptopurine concentration 2.5 μM) was 67 µM. For the same compound, the IC50 ([1]; 6-Mercaptopurine concentration 7.4 μM) was 16 µM, the IC50 ([1]; 6-Mercaptopurine concentration 22 μM) was 2.3 µM and the IC50 ([1]; 6-Mercaptopurine concentration 67 μM) was 5.1 µM. It also gave an IC50 ([1]; 6-Mercaptopurine concentration 200 μM) of 23 µM, an IC50 ([1]; Methotrexate concentration 0 μM) of 314 µM and an IC50 ([1]; Methotrexate concentration 0.08 μM) of 46 µM. For the same compound, the IC50 ([1]; Methotrexate concentration 0.16 μM) was 43 µM, the IC50 ([1]; Methotrexate concentration 0.31 μM) was 41 µM and the IC50 ([1]; Methotrexate concentration 0.63 μM) was 47 µM. For the same compound, the IC50 ([1]; Methotrexate concentration 1.25 μM) was 40 µM, the IC50 ([1]; Methotrexate concentration 2.5 μM) was 38 µM and the IC50 ([1]; Methotrexate concentration 5 μM) was 39 µM. The IC50 ([1]; Methotrexate concentration 10 μM) was 28 µM, the IC50 ([1]; Methotrexate concentration 20 μM) was 30 µM and the IC50 ([1]; Pralatrexate concentration 0 μM) was 304 µM. The IC50 ([1]; Pralatrexate concentration 0.08 μM) was 32 µM, the IC50 ([1]; Pralatrexate concentration 0.16 μM) was 31 µM and the IC50 ([1]; Pralatrexate concentration 0.31 μM) was 25 µM. For the same compound, the IC50 ([1]; Pralatrexate concentration 0.63 μM) was 29 µM, the IC50 ([1]; Pralatrexate concentration 1.25 μM) was 18 µM and the IC50 ([1]; Pralatrexate concentration 2.5 μM) was 24 µM. It also gave an IC50 ([1]; Pralatrexate concentration 5 μM) of 25 µM, an IC50 ([1]; Pralatrexate concentration 10 μM) of 22 µM and an IC50 ([1]; Pralatrexate concentration 20 μM) of 23 µM. The Replicon inhibiting percentage ([1]; T-705 10 μM, antimetabolite 0 μM (T-705 alone)) was 0.58% and 2.2% and −1.8% and −2.3% and −7.8%, the IC50 ([2]; read-out: T-705 50% concentration (50% inhibitory concentration of T-705), 6-Mercaptopurine concentration 0 μM) was 1.97 µM and the IC50 ([2]; read-out: T-705 50% concentration (50% inhibitory concentration of T-705), 6-Mercaptopurine concentration 0.1 μM) was 1.83 µM. The IC50 ([2]; read-out: T-705 50% concentration (50% inhibitory concentration of T-705), 6-Mercaptopurine concentration 0.3 μM) was 1.32 µM, the IC50 ([2]; read-out: T-705 50% concentration (50% inhibitory concentration of T-705), 6-Mercaptopurine concentration 1 μM) was 0.77 µM and the IC50 ([2]; read-out: T-705 50% concentration (50% inhibitory concentration of T-705), 6-Mercaptopurine concentration 3 μM) was 0.7 µM. The IC50 ([2]; read-out: T-705 50% concentration (50% inhibitory concentration of T-705), 6-Mercaptopurine concentration 10 μM) was 0.38 µM, the “minimum drug concentration which exhibits complete CPE suppression effect” value ([3]; 6-mercaptopurine (10 μM) added) was 0.3 µM and the “minimum drug concentration which exhibits complete CPE suppression effect” value ([3]; 6-mercaptopurine (10 μM) and Ribavirin (3 μM) added) was 0.1 µM. The “minimum drug concentration which exhibits complete CPE suppression effect” value ([3]; used alone) was 3 µM and the “LogTCID50 value that shows the effect of reducing the virus amount with respect to the infection control” value (Punta Toro virus) was 1.0*.

For NC(=O)c1nccnc1O [T-1105, 3-hydroxy-pyrazinecarboxamide], the “LogTCID50 value that shows the effect of reducing the virus amount with respect to the infection control” value (Punta Toro virus) was 0.0.

With Cn1c(=O)c2[nH]cnc2n(C)c1=O [Theophylline, theophylline] the “LogTCID50 value that shows the effect of reducing the virus amount with respect to the infection control” value (Punta Toro virus) was “excellent effect of reducing the virus amount”.

Nc1nc2nc[nH]c2c(=S)[nH]1 [Thioguanine] showed an inhibition at 10 µM [1, 4] of -1.2%, an inhibition at 10 µM [1, 6] of 14% and an inhibition at 10 µM [1, 7] of 23%. It also gave a Replicon inhibiting percentage [1, 8] of −4.8%, a Replicon inhibiting percentage [1, 9] of −5.4% and a Replicon inhibiting percentage [1, 10] of −3.7%. The Replicon inhibiting percentage [1, 11] was 12%.

For NC(=O)c1csc([C@@H]2O[C@H](CO)[C@@H](O)[C@H]2O)n1 [Tiazofurin, tiazofurin], the “LogTCID50 value that shows the effect of reducing the virus amount with respect to the infection control” value (Punta Toro virus) was “excellent effect of reducing the virus amount”.
